Assay results published in patent US20250321223A1, “ENGINEERING CHEMICALLY INDUCIBLE SPLIT PROTEIN ACTUATORS (CISPA)” (KEMIJSKI INSTITUT, priority 2021, published 2025).

Assays:
[1] = molecular target: split ligand binding domain of estrogen receptor beta (ERβ) (Homo sapiens, UniProt Q92731); conditions: HEK293T cells, increasing ligand concentration, compared to cells not stimulated; FIG. 2C
Description: (§1) The fusion constructs were simultaneously expressed in the HEK293T cell line. […] Following this dimerization, the split reporter fragments (nLuc and cLuc) are brought into the proximity, leading to their reconstitution and measurable output signal (emitted light). The plasmids encoding for the CISPA sensors based on split LBDs were transiently transfected into the HEK293T cell line. A constitutively expressed Renilla luciferase (phRL-TK http://www.promega.com/vectors/prltk.txf) was used as control of transfection efficiency.
(§2) Methods and techniques for cell line cultivation are well-known to experts in the field and are explained here only indicatively, with the intention of clarifying the example. Cell cultures of HEK293T cells were grown at 37° C. and 5% CO2. For cultivation, DMEM medium with 10% FBS, containing all the necessary nutrients and growth factors was used. When the cell population reached a sufficient density, the cells were transferred to a new flask and/or diluted. For use in experiments, the number of cells was determined by the Countess automated cell counter (Invitrogen). A 96-well microtiter plate, suitable for growing cell cultures, was inoculated with 2*10^4 cells per well 24 hours prior to transfection.

[2] = tested on: split ligand binding domain of glucocorticoid receptor (GR2); assay: CISPA sensor, split LBD of GR2 fused to split firefly luciferase, in HEK293T cells; format: cell-based, human; conditions: increasing ligand concentration, compared to cells not stimulated, FIG. 2B
Description: as §1, §2

[3] = tested on: split dihydrofolate reductase (DHFR); assay: CISPA sensor, split DHFR fused to split firefly luciferase, in HEK293T cells; format: cell-based, human; conditions: increasing ligand concentration, compared to cells not stimulated, FIG. 3B
Procedure: as §2
A constitutively expressed Renilla luciferase (phRL-TK http://www.promega.com/vectors/prltk.txf) was used as control of transfection efficiency.

Sequence of split ligand binding domain of estrogen receptor beta (ERβ) (Q92731 with tags, fused parts or gaps): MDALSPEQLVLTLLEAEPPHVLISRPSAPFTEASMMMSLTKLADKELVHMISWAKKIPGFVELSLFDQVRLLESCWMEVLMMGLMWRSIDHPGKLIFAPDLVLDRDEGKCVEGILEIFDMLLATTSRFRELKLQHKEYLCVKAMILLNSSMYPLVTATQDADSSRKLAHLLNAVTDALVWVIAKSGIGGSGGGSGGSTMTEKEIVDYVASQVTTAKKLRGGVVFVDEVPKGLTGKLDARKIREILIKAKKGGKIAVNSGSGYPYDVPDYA
Sequence of split ligand binding domain of estrogen receptor beta (ERβ) (Q92731 with tags, fused parts or gaps): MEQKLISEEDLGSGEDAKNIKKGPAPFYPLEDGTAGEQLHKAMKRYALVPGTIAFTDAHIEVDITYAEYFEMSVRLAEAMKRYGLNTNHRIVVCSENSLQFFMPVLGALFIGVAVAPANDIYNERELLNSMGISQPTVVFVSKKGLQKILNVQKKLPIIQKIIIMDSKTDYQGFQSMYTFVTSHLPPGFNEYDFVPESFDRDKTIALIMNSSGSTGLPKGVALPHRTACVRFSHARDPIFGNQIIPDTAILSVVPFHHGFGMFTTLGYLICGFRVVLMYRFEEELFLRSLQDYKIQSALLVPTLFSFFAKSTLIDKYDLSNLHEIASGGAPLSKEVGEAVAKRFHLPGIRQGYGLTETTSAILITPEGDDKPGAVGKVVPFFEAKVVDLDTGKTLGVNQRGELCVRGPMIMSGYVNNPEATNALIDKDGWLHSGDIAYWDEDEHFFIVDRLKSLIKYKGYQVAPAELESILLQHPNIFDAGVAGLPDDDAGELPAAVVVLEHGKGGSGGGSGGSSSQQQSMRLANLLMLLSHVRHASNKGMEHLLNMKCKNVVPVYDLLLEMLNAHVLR

Compound	firefly luciferase activity (dimerization of split DHFR CISPA sensor) [3]	also measured
4-hydroxytamoxifen		firefly luciferase activity (dimerization of split ERβ CISPA sensor) [1]: concentration-dependent manner
C[C@]12CCC(=O)C=C1CC[C@@H]1[C@@H]2[C@@H](O)C[C@@]2(C)[C@H]1CC[C@]2(O)C(=O)CO [cortisol]		firefly luciferase activity (dimerization of split GR2 CISPA sensor) [2]: an increase in the firefly luciferase activity is observed
CN(Cc1cnc2nc(N)nc(N)c2n1)c1ccc(C(=O)N[C@@H](CCC(=O)O)C(=O)O)cc1 [methotrexate]	an increase in firefly luciferase activity is observed	
C#CCC(Cc1cnc2nc(N)nc(N)c2n1)c1ccc(C(=O)N[C@@H](CCC(=O)O)C(=O)O)cc1 (stereo partly shown) [pralatrexate]	an increase in firefly luciferase activity is observed	
